Test results from patent US20190343908A1, “Therapeutic Combination for the Treatment of Cancer” (Nerium Biotechnology Inc., priority 2011, published 2019).

Assays:
[1] = test system: HT55 (colorectal cancer); assay: Crystal Violet viability assay, HT55; assay type: cell-based, human; design: key: absorbance at 570 nm (crystal violet), background wavelength subtracted
Source text: (§1) Three different viability assays were chosen to complement each other and yielded results dependent on concentration and cell line: the Methyl Tetrazolium dye assay, the Sulforhodamine B fluorescent dye assay, and the Crystal Violet dye assay.
(§2) The Sulforhodamine B and Crystal Violet assays provide information about protein and were used to complement the Methyl-Tetrazolium dye assay. […] It is used for the quantification of cellular proteins of cultured cells. The assay using Crystal Violet, a dye that binds electrostatically to proteins and stains DNA, provides a reliable, simple assay for measuring viability of cells.
(§3) The Methyl Tetrazolium, Sulforhodamine B, and Crystal Violet assays were used to assess cell viabilities. The incubation times were 24 hours, 48 hours, and 72 hours. The Nerium oleander extract Anvirzel™ (a hot water extract of oleander obtained from Salud Integral, Honduras) was tested in concentrations ranging from 0.01 ng/mL to 10 ng/mL.
(§4) Cells were detached by trypsinization (Trypsin-0.25% EDTA, Invitrogen, 25200-072) during the logarithmic phase of culture growth and plated in 96-well plates (18.000 cells/well) (Corning, Costar 359) in a final volume of 200 μl of medium per well. […] The absorbance was measured after 24 hours, 48 hours, and 72 hours of incubation.
For the Crystal Violet assay, the medium was removed from the 96-well plates, the plates rinsed with PBS (Sigma, P3813) and then the cells were […] by the addition of 10% formalin (MERCK, 1.04003.2500) for 20 minutes at RT. Formalin was removed and 0.25% aqueous crystal violet (Sigma, HT901), dissolved in water, was added for 10 minutes at RT. Unbound Crystal Violet was rinsed by washing with water and finally 33% acetic acid was added to dissolve the dye.
(§5) The optical density of each plate was measured on a μQuant spectrophotometer and the data were analyzed with Gen5 software (μQuant Biomolecular Spectrophotometer MQX200 and Gen5™ Microplate Data Collection & Analysis software, BioTek® Instruments. Inc, April 2008). Absorbance was measured at 570 nm for all assays and a second wavelength was measured in order to subtract noise. For the Methyl-Tetrazolium assay this second wavelength was 630 nm and for the Sulforhodamine B and Crystal Violet assays it was 690 nm.

[2] = test system: HCT-116 (colorectal cancer); assay: Sulforhodamine B viability assay, HCT-116; assay type: cell-based, human; design: key: absorbance (optical density) at 570 nm, second wavelength subtracted; conditions: for Average SRB: HCT-116
Source text: as §1, §2, §3, §4
For the Sulforhodamine B assay, 96-well plates were fixed by 10% trichloroacetic acid (Fluka, 91228) and were incubated at 4° C. for 1 hour. Afterwards, plates were rinsed with water and cells were stained with 0.4% Sulforhodamine B (Sigma, 341738), dissolved in 1% acetic acid (Carlo Ebra, 401422) for 15 minutes at room temperature (RT). The unbound stain was washed twice with 1% acetic acid. Finally, 10 mM Tris Buffer pH 10.5 (Sigma, T6791) was added to dissolve the dye.
as §5

## N.N.[Cl][Pt][Cl] [cisplatin]
[1]; HT55, Run 1, 24 h, 0.1 μg/ml CDDP
  CVE Average: 0.838
[1]; HT55, Run 1, 24 h, 1 μg/ml CDDP
  CVE Average: 0.557
[1]; HT55, Run 1, 24 h, 10 μg/ml CDDP
  CVE Average: 0.728
[1]; HT55, Run 1, 24 h, 100 μg/ml CDDP
  CVE Average: 0.383
[1]; HT55, Run 1, 48 h, 0.1 μg/ml CDDP
  CVE Average: 0.588
[1]; HT55, Run 1, 48 h, 1 μg/ml CDDP
  CVE Average: 0.314
[1]; HT55, Run 1, 48 h, 10 μg/ml CDDP
  CVE Average: 0.405
[1]; HT55, Run 1, 48 h, 100 μg/ml CDDP
  CVE Average: 0.269
[1]; HT55, Run 1, 72 h, 0.1 μg/ml CDDP
  CVE Average: 0.901
[1]; HT55, Run 1, 72 h, 1 μg/ml CDDP
  CVE Average: 0.437
[1]; HT55, Run 1, 72 h, 10 μg/ml CDDP
  CVE Average: 0.436
[1]; HT55, Run 1, 72 h, 100 μg/ml CDDP
  CVE Average: 0.243
[1]; HT55 Run 2, 24 h, 0.1 μg/ml CDDP
  CVE Average: 1.745
[1]; HT55 Run 2, 24 h, 1 μg/ml CDDP
  CVE Average: 0.942
[1]; HT55 Run 2, 24 h, 10 μg/ml CDDP
  CVE Average: 1.075
[1]; HT55 Run 2, 24 h, 100 μg/ml CDDP
  CVE Average: 0.758
[1]; HT55 Run 2, 48 h, 0.1 μg/ml CDDP
  CVE Average: 0.793
[1]; HT55 Run 2, 48 h, 1 μg/ml CDDP
  CVE Average: 0.23
[1]; HT55 Run 2, 48 h, 10 μg/ml CDDP
  CVE Average: 0.281
[1]; HT55 Run 2, 48 h, 100 μg/ml CDDP
  CVE Average: 0.286
[1]; HT55 Run 2, 72 h, 0.1 μg/ml CDDP
  CVE Average: 0.937
[1]; HT55 Run 2, 72 h, 1 μg/ml CDDP
  CVE Average: 0.395
[1]; HT55 Run 2, 72 h, 10 μg/ml CDDP
  CVE Average: 0.326
[1]; HT55 Run 2, 72 h, 100 μg/ml CDDP
  CVE Average: 0.244
[1]; HT55 Run 3, 24 h, 0.1 μg/ml CDDP
  CVE Average: 0.591
[1]; HT55 Run 3, 24 h, 1 μg/ml CDDP
  CVE Average: 0.201
[1]; HT55 Run 3, 24 h, 10 μg/ml CDDP
  CVE Average: 0.812
[1]; HT55 Run 3, 24 h, 100 μg/ml CDDP
  CVE Average: 0.15
[1]; HT55 Run 3, 48 h, 0.1 μg/ml CDDP
  CVE Average: 1.099
[1]; HT55 Run 3, 48 h, 1 μg/ml CDDP
  CVE Average: 0.561
[1]; HT55 Run 3, 48 h, 10 μg/ml CDDP
  CVE Average: 1.712
[1]; HT55 Run 3, 48 h, 100 μg/ml CDDP
  CVE Average: 0.285
[1]; HT55 Run 3, 72 h, 0.1 μg/ml CDDP
  CVE Average: 1.228
[1]; HT55 Run 3, 72 h, 1 μg/ml CDDP
  CVE Average: 0.577
[1]; HT55 Run 3, 72 h, 10 μg/ml CDDP
  CVE Average: 2.329
[1]; HT55 Run 3, 72 h, 100 μg/ml CDDP
  CVE Average: 0.431
[2]; HCT-116, Run 3, 24 h, 0.1 μg/ml CDDP
  SRB Average: 2.01
[2]; HCT-116, Run 3, 24 h, 1 μg/ml CDDP
  SRB Average: 2.129
[2]; HCT-116, Run 3, 24 h, 10 μg/ml CDDP
  SRB Average: 2.05
[2]; HCT-116, Run 3, 24 h, 100 μg/ml CDDP
  SRB Average: 2.084
[2]; HCT-116, Run 3, 48 h, 0.1 μg/ml CDDP
  SRB Average: 1.933
[2]; HCT-116, Run 3, 48 h, 1 μg/ml CDDP
  SRB Average: 1.394
[2]; HCT-116, Run 3, 48 h, 10 μg/ml CDDP
  SRB Average: 1.353
[2]; HCT-116, Run 3, 48 h, 100 μg/ml CDDP
  SRB Average: 1.136
[2]; HCT-116, Run 3, 72 h, 0.1 μg/ml CDDP
  SRB Average: 2.357
[2]; HCT-116, Run 3, 72 h, 1 μg/ml CDDP
  SRB Average: 1.78
[2]; HCT-116, Run 3, 72 h, 10 μg/ml CDDP
  SRB Average: 1.876
[2]; HCT-116, Run 3, 72 h, 100 μg/ml CDDP
  SRB Average: 1.404
[2]; Run 1, 24 h, 0.1 μg/ml CDDP
  Average SRB: 1.56
[2]; Run 1, 24 h, 1 μg/ml CDDP
  Average SRB: 1.606
[2]; Run 1, 24 h, 10 μg/ml CDDP
  Average SRB: 1.527
[2]; Run 1, 24 h, 100 μg/ml CDDP
  Average SRB: 1.736
[2]; Run 1, 48 h, 0.1 μg/ml CDDP
  Average SRB: 2.278
[2]; Run 1, 48 h, 1 μg/ml CDDP
  Average SRB: 2.16
[2]; Run 1, 48 h, 10 μg/ml CDDP
  Average SRB: 2.055
[2]; Run 1, 48 h, 100 μg/ml CDDP
  Average SRB: 1.169
[2]; Run 1, 72 h, 0.1 μg/ml CDDP
  Average SRB: 2.449
[2]; Run 1, 72 h, 1 μg/ml CDDP
  Average SRB: 1.569
[2]; Run 1, 72 h, 10 μg/ml CDDP
  Average SRB: 1.67
[2]; Run 1, 72 h, 100 μg/ml CDDP
  Average SRB: 1.616
[2]; Run 2, 24 h, 0.1 μg/ml CDDP
  Average SRB: 1.357
[2]; Run 2, 24 h, 1 μg/ml CDDP
  Average SRB: 1.199
[2]; Run 2, 24 h, 10 μg/ml CDDP
  Average SRB: 1.056
[2]; Run 2, 24 h, 100 μg/ml CDDP
  Average SRB: 1.173
[2]; Run 2, 48 h, 0.1 μg/ml CDDP
  Average SRB: 2.886
[2]; Run 2, 48 h, 1 μg/ml CDDP
  Average SRB: 2.878
[2]; Run 2, 48 h, 10 μg/ml CDDP
  Average SRB: 2.746
[2]; Run 2, 48 h, 100 μg/ml CDDP
  Average SRB: 2.664
[2]; Run 2, 72 h, 0.1 μg/ml CDDP
  Average SRB: 2.909
[2]; Run 2, 72 h, 1 μg/ml CDDP
  Average SRB: 2.703
[2]; Run 2, 72 h, 10 μg/ml CDDP
  Average SRB: 2.728
[2]; Run 2, 72 h, 100 μg/ml CDDP
  Average SRB: 2.514
